From patent publication US20240368214A1, “POSITIVE NMDA-MODULATING COMPOUNDS AND METHODS OF USE THEREOF” (SAGE THERAPEUTICS, INC., priority 2021, published 2024)
Where two headings read alike, the source gives them in different places.

Target: T1, recombinant human GluN1/GluN2A receptor (Homo sapiens, UniProt Q05586+Q12879)
T1 construct: expressed in transfected cells; host or cells: HEK293, tetracycline-inducible expression
Assay: Whole-cell patch clamp of mammalian cells (Syncropatch 384i), NMDA modulation
Type: cell-based
Conditions: HEK293 cells, human GluN1/GluN2A, glutamate 1 μM / glycine 100 μM, -80 mV, peak amplitude increase; for EC50: read-out: EC50
Method in brief: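 HEK293 cells with tetracycline-induced (50 ng/ml, 18–24 h) human GluN1/GluN2A, automated whole-cell recording at −80 mV, pH 7.4 external. After 120 s compound pre-incubation, compound applied with glutamate 1 μM/glycine 100 μM; fold peak increase (Icomp/Icontrol)−1 over 8 concentrations fitted four-parameter logistic.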

T1 sequence (Q12879 23-1464, other chains not shown): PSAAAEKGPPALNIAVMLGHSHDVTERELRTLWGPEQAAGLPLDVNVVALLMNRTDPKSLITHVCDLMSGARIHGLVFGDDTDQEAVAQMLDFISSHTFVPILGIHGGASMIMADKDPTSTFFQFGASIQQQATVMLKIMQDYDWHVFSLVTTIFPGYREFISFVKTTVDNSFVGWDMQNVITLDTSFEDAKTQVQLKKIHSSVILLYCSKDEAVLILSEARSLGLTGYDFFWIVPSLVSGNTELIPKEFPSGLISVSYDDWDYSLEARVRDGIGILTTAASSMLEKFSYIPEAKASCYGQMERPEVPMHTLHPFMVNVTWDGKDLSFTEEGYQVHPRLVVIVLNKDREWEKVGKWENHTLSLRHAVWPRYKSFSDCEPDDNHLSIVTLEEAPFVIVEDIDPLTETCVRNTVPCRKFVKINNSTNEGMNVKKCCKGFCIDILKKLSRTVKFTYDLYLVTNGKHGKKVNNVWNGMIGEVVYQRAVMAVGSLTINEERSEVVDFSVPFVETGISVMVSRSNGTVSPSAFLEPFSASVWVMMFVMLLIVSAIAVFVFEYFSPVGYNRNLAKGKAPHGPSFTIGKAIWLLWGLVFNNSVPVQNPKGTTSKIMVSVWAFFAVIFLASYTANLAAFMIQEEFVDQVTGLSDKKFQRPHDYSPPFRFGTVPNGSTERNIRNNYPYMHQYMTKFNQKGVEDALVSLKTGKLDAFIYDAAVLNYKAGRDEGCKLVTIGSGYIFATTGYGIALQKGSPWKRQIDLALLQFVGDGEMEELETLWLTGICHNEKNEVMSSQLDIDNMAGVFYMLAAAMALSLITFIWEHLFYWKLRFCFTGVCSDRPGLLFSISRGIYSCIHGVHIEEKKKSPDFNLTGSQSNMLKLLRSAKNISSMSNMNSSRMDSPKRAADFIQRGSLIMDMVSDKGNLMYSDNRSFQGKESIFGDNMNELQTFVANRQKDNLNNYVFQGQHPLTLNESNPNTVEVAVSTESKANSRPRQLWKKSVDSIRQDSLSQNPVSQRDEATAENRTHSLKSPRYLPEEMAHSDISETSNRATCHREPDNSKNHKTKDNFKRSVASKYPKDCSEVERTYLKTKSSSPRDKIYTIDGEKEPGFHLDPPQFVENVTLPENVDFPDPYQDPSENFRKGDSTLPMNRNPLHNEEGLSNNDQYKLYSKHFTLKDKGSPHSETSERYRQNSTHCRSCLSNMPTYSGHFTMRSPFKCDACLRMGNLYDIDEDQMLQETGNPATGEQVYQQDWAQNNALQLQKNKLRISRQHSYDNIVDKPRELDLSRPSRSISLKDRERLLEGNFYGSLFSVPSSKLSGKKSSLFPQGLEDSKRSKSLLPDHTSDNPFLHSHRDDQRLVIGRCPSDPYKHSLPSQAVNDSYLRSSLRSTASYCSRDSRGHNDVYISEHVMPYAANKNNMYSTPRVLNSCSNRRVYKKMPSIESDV

| Compound | Emax (Table D-2) [%] | EC50 (Table D-2) [nM] | EC50 (Table C-2) [nM] | EC50 (Table E-2) [nM] |
| --- | --- | --- | --- | --- |
| C[C@H](CC[C@@H](O)C(C)(C)C#N)[C@H]1CC[C@H]2[C@@H]3CC[C@H]4C[C@@](C)(O)CC[C@]4(C)C3=CC[C@]12C [Compound C-34, (3R,6R)-3-hydroxy-6-((3S,5S,8S,10S,13R,14S,17R)-3-hydroxy-3,10,13-trimethyl-2,3,4,5,6,7,8,10,12,13,14,15,16,17-tetradecahydro-1H-cyclopenta[a]phenanthren-17-yl)-2,2-dimethylheptanenitrile] | – | – | 1 to 100 | 1 to 100 |
| C[C@H](CC[C@H](O)C(C)(C)C#N)[C@H]1CC[C@H]2[C@@H]3CC[C@H]4C[C@@](C)(O)CC[C@]4(C)C3=CC[C@]12C [Compound C-35, (3S,6R)-3-hydroxy-6-((3S,5S,8S,10S,13R,14S,17R)-3-hydroxy-3,10,13-trimethyl-2,3,4,5,6,7,8,10,12,13,14,15,16,17-tetradecahydro-1H-cyclopenta[a]phenanthren-17-yl)-2,2-dimethylheptanenitrile] | – | – | 1 to 100 | 1 to 100 |
| CC[C@@]1(O)CC[C@@H]2CC[C@@H]3[C@H](CC[C@]4(C)[C@@H]([C@H](C)CC[C@@](C)(O)C(F)(F)F)CC[C@@H]34)[C@@]2(C)CC1 [Compound D-1, (1R,3aS,3bR,5aS,8R,10aS,10bS,12aR)-8-ethyl-10a,12a-dimethyl-1-((2R,5R)-6,6,6-trifluoro-5-hydroxy-5-methylhexan-2-yl)octadecahydrocyclohepta[a]cyclopenta[f]naphthalen-8-ol] | < 100 | > 1000 | – | – |
| CC[C@]1(O)CC[C@@H]2CC[C@@H]3[C@H](CC[C@]4(C)[C@@H]([C@H](C)CC[C@@](C)(O)C(F)(F)F)CC[C@@H]34)[C@@]2(C)CC1 [Compound D-2, (1R,3aS,3bR,5aS,8S,10aS,10bS,12aR)-8-ethyl-10a,12a-dimethyl-1-((2R,5R)-6,6,6-trifluoro-5-hydroxy-5-methylhexan-2-yl)octadecahydrocyclohepta[a]cyclopenta[f]naphthalen-8-ol] | < 100 | > 1000 | – | – |
| CC[C@]1(O)CC[C@@H]2CC[C@@H]3[C@H](CC[C@]4(C)[C@@H]([C@H](C)CC[C@](C)(O)C(F)(F)F)CC[C@@H]34)[C@@]2(C)CC1 [Compound D-4, (1R,3aS,3bR,5aS,8S,10aS,10bS,12aR)-8-ethyl-10a,12a-dimethyl-1-((2R,5S)-6,6,6-trifluoro-5-hydroxy-5-methylhexan-2-yl)octadecahydrocyclohepta[a]cyclopenta[f]naphthalen-8-ol] | – | > 1000 | – | – |

More lines, main results first:

| Emax (Table D-2) [%] | EC50 (Table D-2) [nM] | Compound | EC50 (Table C-2) [nM] | EC50 (Table E-2) [nM] |
| --- | --- | --- | --- | --- |
| 100 to 200 | 100 to 500 | CC[C@@]1(O)CC[C@@H]2CC[C@@H]3[C@H](CC[C@]4(C)[C@@H]([C@H](C)CC[C@](C)(O)C(F)(F)F)CC[C@@H]34)[C@@]2(C)CC1 [Compound D-3, (1R,3aS,3bR,5aS,8R,10aS,10bS,12aR)-8-ethyl-10a,12a-dimethyl-1-((2R,5S)-6,6,6-trifluoro-5-hydroxy-5-methylhexan-2-yl)octadecahydrocyclohepta[a]cyclopenta[f]naphthalen-8-ol] | – | – |
| < 100 | 100 to 500 | CC[C@]1(O)CCC[C@@]2(C)[C@@H](CC[C@@H]3[C@@H]2CC[C@]2(C)[C@@H]([C@H](C)CC[C@@](C)(O)C(F)(F)F)CC[C@@H]32)C1 [Compound D-5, (1R,3aS,3bR,5aS,7S,10aS,10bS,12aR)-7-ethyl-10a,12a-dimethyl-1-((2R,5R)-6,6,6-trifluoro-5-hydroxy-5-methylhexan-2-yl)octadecahydrocyclohepta[a]cyclopenta[f]naphthalen-7-ol] | – | – |
| 100 to 200 | 1 to 100 | CC[C@@]1(O)CCC[C@@]2(C)[C@@H](CC[C@@H]3[C@@H]2CC[C@]2(C)[C@@H]([C@H](C)CC[C@@](C)(O)C(F)(F)F)CC[C@@H]32)C1 [Compound D-6, (1R,3aS,3bR,5aS,7R,10aS,10bS,12aR)-7-ethyl-10a,12a-dimethyl-1-((2R,5R)-6,6,6-trifluoro-5-hydroxy-5-methylhexan-2-yl)octadecahydrocyclohepta[a]cyclopenta[f]naphthalen-7-ol] | – | – |
